Results: patent US10328082B2, “Methods of use and combinations” (Pfizer Inc., priority 2014, dated 2019)
pEC50: −log10 of the molar value.

How the values were obtained:
[1] = target: T1, human Androgen Receptor (AR) (Homo sapiens, UniProt P10275); assay: Androgen Receptor-Mediated Transcriptional Assay; format: cell-based; conditions: CV-1 cells transiently transfected with full length human AR and ARE-luciferase, 16-18 hours incubation
T1 construct: transiently transfected in T225 cm^2 flasks with a full length human Androgen Receptor (AR) cDNA; expressed in transfected cells; host or cells: CV-1 cells (ATCC CCL-70), transiently transfected
T1 sequence (P10275 1-920): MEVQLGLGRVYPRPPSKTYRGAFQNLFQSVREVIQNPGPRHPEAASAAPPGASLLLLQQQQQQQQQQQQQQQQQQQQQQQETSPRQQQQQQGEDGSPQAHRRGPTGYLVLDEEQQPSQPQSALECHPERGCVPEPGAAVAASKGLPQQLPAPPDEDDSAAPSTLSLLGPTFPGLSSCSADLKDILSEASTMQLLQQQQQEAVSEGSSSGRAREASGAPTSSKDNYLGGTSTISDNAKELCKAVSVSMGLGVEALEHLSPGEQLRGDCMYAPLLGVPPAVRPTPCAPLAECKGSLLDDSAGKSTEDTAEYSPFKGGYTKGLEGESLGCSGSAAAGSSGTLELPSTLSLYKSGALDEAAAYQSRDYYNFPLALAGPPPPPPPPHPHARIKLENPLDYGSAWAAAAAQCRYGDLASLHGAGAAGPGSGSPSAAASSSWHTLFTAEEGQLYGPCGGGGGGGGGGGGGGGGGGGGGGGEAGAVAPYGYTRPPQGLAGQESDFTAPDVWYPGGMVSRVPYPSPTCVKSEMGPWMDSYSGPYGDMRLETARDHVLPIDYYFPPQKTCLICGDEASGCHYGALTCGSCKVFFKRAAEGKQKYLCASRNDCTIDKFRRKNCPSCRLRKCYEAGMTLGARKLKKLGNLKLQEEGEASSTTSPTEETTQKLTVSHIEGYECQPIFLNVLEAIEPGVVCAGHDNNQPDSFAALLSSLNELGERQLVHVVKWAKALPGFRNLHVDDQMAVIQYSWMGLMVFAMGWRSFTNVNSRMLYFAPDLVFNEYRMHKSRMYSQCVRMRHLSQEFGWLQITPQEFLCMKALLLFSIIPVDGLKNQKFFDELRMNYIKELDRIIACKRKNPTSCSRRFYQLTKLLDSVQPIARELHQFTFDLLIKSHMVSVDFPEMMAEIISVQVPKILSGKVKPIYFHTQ
Procedure: Androgen Receptor-Mediated Transcriptional Assay Summary
CV-1 cells (American Tissue Culture Collection cat# CCL-70) were expanded in Growth Media and transiently transfected in T225 cm^2 flasks with a full length human Androgen Receptor (AR) cDNA in the pcDNA3 expression vector and a human Androgen Response Element (ARE)-luciferase cDNA in the pGL3 vector (both from Invitrogen). DNA (μg) and Lipofectamine (μl) at a ratio of 1:3 were incubated with the cells in a total volume of 55 mL Basal Media for 4 hours. Cells were harvested by trypsinization and frozen back (−150° C. cryomed) at a concentration of 4.3 million cells/mL.
On the day of the assay, frozen cells were thawed and re-suspended in Re-suspension Media and plated at 40,000 cells/well (in 100 μL volume) in 96 well white plates and were incubated for at least 4 h at 37° C., 5% CO2. After incubation, cells were treated with the compounds to be screened. 10 mM stocks of the compounds were serially diluted 1:10 in 100% DMSO followed by an additional 1:100 dilution in Assay Media. These dilution series were added to the cell plates resulting in a further 1:10 dilution and a final % DMSO of 0.1%. The vehicle control wells also contained this dilution of DMSO and the positive control wells contained […] (DHT) as an AR agonist at final concentration of 0.3 nM in 0.1% DMSO. Cells were incubated for 16-18 hours at 37° C. and 5% CO2. Then the culture media was removed from and the cells were lysed in 20 μL of cell lysis reagent for 5 minutes at room temperature. 50 μL of luciferase reagent was added to each well and luminescence, over 5 seconds, was measured.
EC50 (half maximal effective concentration) was calculated from concentration series plots which generated sigmoidal curves. Xlfit software was used to plot the best fit of the % effect vs concentration and to calculate the EC50.

[2] = DSC profile of the crystalline form; format: physicochemical; conditions: demonstrated by the high DSC melting point and DSC profile
Procedure: DSC measurements were performed with a Discovery DSC (TA instruments) equipped with a refrigerated cooling accessory. Approximately 2-5 mg of solid sample was weighed into a standard/Tzero aluminum pan and non-hermetically sealed. The sample was placed in a cell with continuous dry nitrogen purge (50 mL/min) and heated from 25° C. to 250° C. at 10° C./min heating rate. The cell constant was determined using indium and temperature calibration was performed using indium and tin as standards. The experimental data were analyzed using commercially available software (TA Universal Analysis 2000/Trios software, TA Instruments).
The characterization data disclosed herein confirms the crystalline nature of the 6-[(4R)-4-methyl-1,1-dioxido-1,2,6-thiadiazinan-2-yl]isoquinoline-1-carbonitrile free base Form (1) material and, as such, that it is a useful form for pharmaceutical development. For example, crystalline materials are generally considered to be an advantageous form for drug substance manufacturing because, for example, they are more easily purified, can be prepared with higher yields, have improved filtration and drying characteristics and improved flow and handling characteristics.

6-[(4S)-4-(3-methylphenyl)-1,1-dioxido-1,2,6-thiadiazinan-2-yl]isoquinoline-1-carbonitrile [Compound 20]
pEC50 ([1]; Compounds 1-22): 8.10

6-[(4S)-4-ethyl-1,1-dioxido-1,2,6-thiadiazinan-2-yl]isoquinoline-1-carbonitrile [Compound 21]
pEC50 ([1]; Compounds 1-22): 8.10

6-{(2R,5R)-2-[(1R)-1-hydroxyethyl]-5-methylpyrrolidin-1-yl}isoquinoline-1-carbonitrile [Compound 31]
pEC50 ([1]; Compounds 23-39): 6.32

C[C@@H]1CNS(=O)(=O)N(c2ccc3c(C#N)nccc3c2)C1 [6-[(4R)-4-methyl-1,1-dioxido-1,2,6-thiadiazinan-2-yl]isoquinoline-1-carbonitrile]
hygroscopic nature [2]: non-hygroscopic | thermal stability [2]: thermal stability

C[C@H]1CN(C)S(=O)(=O)N1c1ccc2c(C#N)nccc2c1 [Compound 5]
pEC50 ([1]; Compounds 1-22): 8.30
